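All cell lines were grown in 96-well plates and treated with compound for 48 hours. The concentration for 50% growth inhibition is given as GI50.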 Activity calls are given as the source filed them. Rule as the data show it: active = GI50 up to about 1.1 µM and inactive = higher.
Experiments:
Assay in all cases: DTP human tumour cell line panel, 48 h
HOP-92 = tested on: HOP-92
HOP-62 = tested on: HOP-62
PC-3 = tested on: PC-3
SNB-19 = tested on: SNB-19
RPMI-8226 = tested on: RPMI-8226
SW-620 = tested on: SW-620
SK-OV-3 = tested on: SK-OV-3
HT-29 = tested on: HT-29
K562 = tested on: K562
MDA-N = tested on: MDA-N
Malme-3M = tested on: Malme-3M
A549 = tested on: A549
IGROV-1 = tested on: IGROV-1
T47D = tested on: T47D
SK-MEL-2 = tested on: SK-MEL-2
NCI-H460 = tested on: NCI-H460
BT-549 = tested on: BT-549
LOX IMVI = tested on: LOX IMVI
U-251 = tested on: U-251
OVCAR-8 = tested on: OVCAR-8

Measured: GI50

O=C1C=CC(=O)c2ncccc21
inactive: HOP-92 1.63 µM | HOP-62 5.11 µM | PC-3 9.82 µM | SNB-19 6.17 µM | RPMI-8226 2.55 µM | SW-620 1.93 µM | SK-OV-3 12.2 µM | HT-29 4.57 µM | K562 2.32 µM | MDA-N 4.56 µM | Malme-3M 3.84 µM | A549 10.1 µM | IGROV-1 5.07 µM | T47D 2.19 µM | SK-MEL-2 13.6 µM | NCI-H460 3.98 µM | BT-549 4.45 µM | LOX IMVI 2.09 µM | U-251 3.18 µM | OVCAR-8 9.04 µM

S=C1NC(c2ccccc2)NC(c2ccccc2)S1 (stereo not given)
inactive: HOP-92 > 100 µM | HOP-62 74.8 µM | PC-3 > 100 µM | SNB-19 55.5 µM | RPMI-8226 > 100 µM | SW-620 > 100 µM | SK-OV-3 > 100 µM | HT-29 14.1 µM | K562 42.2 µM | MDA-N > 100 µM | Malme-3M > 100 µM | A549 > 100 µM | IGROV-1 > 100 µM | T47D > 100 µM | SK-MEL-2 > 100 µM | NCI-H460 21.4 µM | BT-549 > 100 µM | LOX IMVI 78.9 µM | U-251 39.4 µM | OVCAR-8 > 100 µM

CCOC(=O)C(C(=O)OCC)=C1NC2(c3ccccc3Nc3ccccc32)C(C#N)S1 (stereo not given)
inactive: HOP-92 4.34 µM | HOP-62 12.2 µM | PC-3 4.52 µM | SNB-19 12.6 µM | RPMI-8226 3.01 µM | SW-620 12.4 µM | SK-OV-3 12.7 µM | HT-29 4.21 µM | K562 7.53 µM | MDA-N 14.4 µM | Malme-3M 15.3 µM | A549 4.39 µM | IGROV-1 11.1 µM | T47D 4.66 µM | SK-MEL-2 11.6 µM | NCI-H460 3.79 µM | BT-549 14.2 µM | LOX IMVI 13.6 µM | U-251 12.1 µM | OVCAR-8 10.9 µM

O=C1NC2=NOC(=O)NC2=NO1
inactive: HOP-92 > 200 µM | HOP-62 > 200 µM | PC-3 > 200 µM | SNB-19 > 200 µM | RPMI-8226 > 200 µM | SW-620 > 200 µM | SK-OV-3 > 200 µM | HT-29 > 200 µM | K562 > 200 µM | MDA-N > 200 µM | Malme-3M > 200 µM | A549 > 200 µM | IGROV-1 > 200 µM | T47D > 200 µM | SK-MEL-2 > 200 µM | NCI-H460 > 200 µM | BT-549 > 200 µM | LOX IMVI > 200 µM | U-251 > 200 µM | OVCAR-8 > 200 µM

CC12CCCCC1=C(F)C(F)(F)S2 (stereo not given)
inactive: HOP-92 23.6 µM | HOP-62 63.8 µM | PC-3 40.7 µM | SNB-19 > 100 µM | RPMI-8226 7.46 µM | SW-620 24.5 µM | SK-OV-3 > 100 µM | HT-29 20.8 µM | K562 17.5 µM | MDA-N 21.9 µM | Malme-3M 24.4 µM | A549 > 79.3 µM | IGROV-1 > 71.9 µM | T47D 26.7 µM | SK-MEL-2 75.2 µM | NCI-H460 > 100 µM | BT-549 19.1 µM | LOX IMVI 31.8 µM | U-251 98.6 µM | OVCAR-8 35.8 µM

From ChEMBL document CHEMBL1201862, “PubChem BioAssay data set” (2004)
